# According to ChEMBL document CHEMBL3045679, “Microwave-assisted synthesis and pharmacological studies of novel 5-deazaalloxazine derivatives” (2012):
# Active and inactive are the calls of the source. No cut-off for these calls is given here.
# Assays:
# [1] = tested on: Lipomyces lipofer; experiment: Antifungal activity against Lipomyces lipofer NCIM 3252 at 1000 ug/disk after 72 hr by disk diffusion method; format: functional
# [2] = tested on: Lipomyces lipofer; experiment: Antifungal activity against Lipomyces lipofer NCIM 3252 at 500 ug/disk after 72 hr by disk diffusion method; format: functional
# [3] = tested on: Candida albicans; experiment: Antifungal activity against Candida albicans NCIM 3471 at 1000 ug/disk after 72 hr by disk diffusion method; format: functional; details: for zone of inhibition at 1000 µg/disc: NCIM 3471, 72 h, read-out: DIZ
# [4] = tested on: Candida albicans; experiment: Antifungal activity against Candida albicans NCIM 3471 at 500 ug/disk after 72 hr by disk diffusion method; format: functional
# [5] = tested on: Rhodotorula mucilaginosa; experiment: Antifungal activity against Rhodotorula mucilaginosa NCIM 3174 at 1000 ug/disk after 72 hr by disk diffusion method; format: functional; details: for zone of inhibition at 1000 µg/disc: NCIM 3174, 72 h, read-out: DIZ
# [6] = tested on: Rhodotorula mucilaginosa; experiment: Antifungal activity against Rhodotorula mucilaginosa NCIM 3174 at 500 ug/disk after 72 hr by disk diffusion method; format: functional
# [7] = tested on: Aspergillus flavus; experiment: Antifungal activity against Aspergillus flavus NCIM 535 at 1000 ug/disk after 72 hr by disk diffusion method; format: functional; details: for zone of inhibition at 1000 µg/disc: NCIM 535, 72 h, read-out: DIZ
# [8] = tested on: Aspergillus flavus; experiment: Antifungal activity against Aspergillus flavus NCIM 535 at 500 ug/disk after 72 hr by disk diffusion method; format: functional
# [9] = tested on: Aspergillus niger; experiment: Antifungal activity against Aspergillus niger NCIM 1196 at 1000 ug/disk after 72 hr by disk diffusion method; format: functional; details: for zone of inhibition at 1000 µg/disc: NCIM 1196, 72 h, read-out: DIZ
# [10] = tested on: Aspergillus niger; experiment: Antifungal activity against Aspergillus niger NCIM 1196 at 500 ug/disk after 72 hr by disk diffusion method; format: functional
# [11] = tested on: Penicillium chrysogenum; experiment: Antifungal activity against Penicillium chrysogenum NCIM 707 at 1000 ug/disk after 72 hr by disk diffusion method; format: functional
# [12] = tested on: Penicillium chrysogenum; experiment: Antifungal activity against Penicillium chrysogenum NCIM 707 at 500 ug/disk after 72 hr by disk diffusion method; format: functional
# [13] = tested on: Streptomyces albus; experiment: Antibacterial activity against Streptomyces albus NCIM 2178 at 1000 ug/disk after 24 hr by disk diffusion method; format: functional
# [14] = tested on: Streptomyces albus; experiment: Antibacterial activity against Streptomyces albus NCIM 2178 at 500 ug/disk after 24 hr by disk diffusion method; format: functional, organism-based
# [15] = tested on: Bacillus cereus; experiment: Antibacterial activity against Bacillus cereus NCIM 2155 at 1000 ug/disk after 24 hr by disk diffusion method; format: functional; details: NCIM 2155, 24 h, read-out: DIZ
# [16] = tested on: Bacillus cereus; experiment: Antibacterial activity against Bacillus cereus NCIM 2155 at 500 ug/disk after 24 hr by disk diffusion method; format: functional; details: for zone of inhibition at 500 µg/disc: NCIM 2155, 24 h, read-out: DIZ
# [17] = tested on: Bacillus subtilis; experiment: Antibacterial activity against Bacillus subtilis NCIM 2063 at 1000 ug/disk after 24 hr by disk diffusion method; format: functional; details: NCIM 2063, 24 h, read-out: DIZ
# [18] = tested on: Bacillus subtilis; experiment: Antibacterial activity against Bacillus subtilis NCIM 2063 at 500 ug/disk after 24 hr by disk diffusion method; format: functional
# [19] = tested on: Klebsiella aerogenes; experiment: Antibacterial activity against Enterobacter aerogenes NCIM 2239 at 1000 ug/disk after 24 hr by disk diffusion method; format: functional; details: NCIM 2239, 24 h, read-out: DIZ
# [20] = tested on: Klebsiella aerogenes; experiment: Antibacterial activity against Enterobacter aerogenes NCIM 2239 at 500 ug/disk after 24 hr by disk diffusion method; format: functional
# [21] = tested on: Pseudomonas aeruginosa; experiment: Antibacterial activity against Pseudomonas aeruginosa NCIM 2200 at 1000 ug/disk after 24 hr by disk diffusion method; format: functional; details: NCIM 2200, 24 h, read-out: DIZ
# [22] = tested on: Pseudomonas aeruginosa; experiment: Antibacterial activity against Pseudomonas aeruginosa NCIM 2200 at 500 ug/disk after 24 hr by disk diffusion method; format: functional
# [23] = tested on: Escherichia coli; experiment: Antibacterial activity against Escherichia coli NCIM 2065 at 1000 ug/disk after 24 hr by disk diffusion method; format: functional; details: NCIM 2065, 24 h, read-out: DIZ
# [24] = tested on: Escherichia coli; experiment: Antibacterial activity against Escherichia coli NCIM 2065 at 500 ug/disk after 24 hr by disk diffusion method; format: functional; details: for zone of inhibition at 500 µg/disc: NCIM 2065, 24 h, read-out: DIZ
# [25] = tested on: Bacillus subtilis; experiment: Antibacterial activity against Bacillus subtilis NCIM 2063 after 24 hr by broth dilution assay; format: functional; details: NCIM 2063, 24 h
# [26] = tested on: Klebsiella aerogenes; experiment: Antibacterial activity against Enterobacter aerogenes NCIM 2239 after 24 hr by broth dilution assay; format: functional; details: NCIM 2239, 24 h
# [27] = tested on: Pseudomonas aeruginosa; experiment: Antibacterial activity against Pseudomonas aeruginosa NCIM 2200 after 24 hr by broth dilution assay; format: functional; details: NCIM 2200, 24 h
# [28] = tested on: Escherichia coli; experiment: Antibacterial activity against Escherichia coli NCIM 2065 after 24 hr by broth dilution assay; format: functional; details: NCIM 2065, 24 h
# [29] = tested on: Aspergillus niger; experiment: Antifungal activity against Aspergillus niger NCIM 1196 after 72 hr by broth dilution assay; format: functional; details: NCIM 1196, 72 h
# [30] = tested on: Bacillus cereus; experiment: Antibacterial activity against Bacillus cereus NCIM 2155 after 24 hr by broth dilution assay; format: functional; details: NCIM 2155, 24 h
# [31] = tested on: Streptomyces albus; experiment: Antibacterial activity against Streptomyces albus NCIM 2178 after 24 hr by broth dilution assay; format: functional; details: NCIM 2178, 24 h
# [32] = tested on: Candida albicans; experiment: Antifungal activity against Candida albicans NCIM 3471 after 72 hr by broth dilution assay; format: functional; details: NCIM 3471, 72 h
# [33] = tested on: Rhodotorula mucilaginosa; experiment: Antifungal activity against Rhodotorula mucilaginosa NCIM 3174 after 72 hr by broth dilution assay; format: functional; details: NCIM 3174, 72 h
MIC [25] [µg/mL],MIC [26] [µg/mL],MIC [27] [µg/mL],MIC [28] [µg/mL],MIC [30] [µg/mL],SMILES,diameter of the inhibition zone (DIZ) [1],diameter of the inhibition zone (DIZ) [2],diameter of the inhibition zone (DIZ) [4],diameter of the inhibition zone (DIZ) [6],zone of inhibition at 1000 µg/disc [7] [mm],diameter of the inhibition zone (DIZ) [8],diameter of the inhibition zone (DIZ) [10],diameter of the inhibition zone (DIZ) [12],diameter of the inhibition zone (DIZ) [14],zone of inhibition at 1000 µg/disc [15] [mm],zone of inhibition at 1000 µg/disc [17] [mm],zone of inhibition at 1000 µg/disc [19] [mm],diameter of the inhibition zone (DIZ) [20],zone of inhibition at 1000 µg/disc [21] [mm],zone of inhibition at 1000 µg/disc [23] [mm],also measured
31.2,62.5,31.2,7.8,62.5,O=c1[nH]c(=O)c2cc3cc(Br)ccc3nc2[nH]1,inactive,inactive,inactive,inactive,11,inactive,inactive,inactive,inactive,11,12,10,inactive,12,11,"diameter of the inhibition zone (DIZ) [3]: inactive; diameter of the inhibition zone (DIZ) [5]: inactive; zone of inhibition at 1000 µg/disc [9]: 12 mm; diameter of the inhibition zone (DIZ) [11]: inactive; diameter of the inhibition zone (DIZ) [13]: inactive; zone of inhibition at 500 µg/disc [16]: 8 mm; diameter of the inhibition zone (DIZ) [18]: inactive; zone of inhibition at 500 µg/disc ([22]; NCIM 2200, 24 h, read-out: DIZ): 9 mm; zone of inhibition at 500 µg/disc [24]: 7 mm; MIC [29]: 62.5 µg/mL"
31.2,62.5,31.2,7.8,31.2,O=c1[nH]c(=O)c2cc3cc(Cl)ccc3nc2[nH]1,inactive,inactive,inactive,inactive,–,inactive,inactive,inactive,inactive,10,12,8,inactive,12,12,"zone of inhibition at 1000 µg/disc [3]: 10 mm; zone of inhibition at 1000 µg/disc [5]: 9 mm; diameter of the inhibition zone (DIZ) [7]: inactive; diameter of the inhibition zone (DIZ) [9]: inactive; diameter of the inhibition zone (DIZ) [11]: inactive; zone of inhibition at 1000 µg/disc ([13]; NCIM 2178, 24 h, read-out: DIZ): 10 mm; zone of inhibition at 500 µg/disc [16]: 8 mm; zone of inhibition at 500 µg/disc ([18]; NCIM 2063, 24 h, read-out: DIZ): 8 mm; diameter of the inhibition zone (DIZ) [22]: inactive; zone of inhibition at 500 µg/disc [24]: 9 mm; MIC [31]: 62.5 µg/mL"
62.5,62.5,62.5,7.8,31.5,COc1cccc2cc3c(=O)[nH]c(=O)[nH]c3nc12,inactive,inactive,inactive,–,8,inactive,inactive,inactive,inactive,12,10,8,inactive,10,12,"zone of inhibition at 1000 µg/disc [3]: 12 mm; zone of inhibition at 1000 µg/disc [5]: 10 mm; zone of inhibition at 500 µg/disc ([6]; NCIM 3174, 72 h, read-out: DIZ): 8 mm; zone of inhibition at 1000 µg/disc [9]: 11 mm; zone of inhibition at 1000 µg/disc ([11]; NCIM 707, 72 h, read-out: DIZ): 8 mm; diameter of the inhibition zone (DIZ) [13]: inactive; diameter of the inhibition zone (DIZ) [16]: inactive; diameter of the inhibition zone (DIZ) [18]: inactive; diameter of the inhibition zone (DIZ) [22]: inactive; diameter of the inhibition zone (DIZ) [24]: inactive; MIC [32]: 125 µg/mL; MIC [33]: 31.2 µg/mL; MIC [29]: 125 µg/mL"
